Earlier results, collected in patent US20250275948A1, “(N-[4-(2,3-DIHYDRO-1H-INDEN-5-YL)-1,3-THIAZOL-2-YL]-2-[4-METHYL-4-(NAPHTHALEN-2-YL)-2,5-DIOXOIMIDAZOLIDIN-1-YL]ACETAMIDE AS STABILIZER OF CLOCK:BMAL1 INTERACTION FOR THE TREATMENT OF CIRCADIAN RHYTHM DISEASES AND DISORDERS” (KOC UNIVERSITESI, priority 2022, published 2025).

Assays:
Settings in all cases: cited from earlier work
gluconeogenesis = test system: gluconeogenesis
CRYs = test system: CRYs
REV-ERB = test system: REV-ERB

SMILES	effect on gluconeogenesis (gluconeogenesis)	effect on stability of CRYs (CRYs)	effect on REV-ERB repressor function (REV-ERB)
CS(=O)(=O)N(Cc1ccco1)CC(O)Cn1c2ccccc2c2ccccc21 (stereo not drawn) [KL001]	suppresses the gluconeogenesis	increases stability of the CRYs	
CC(C)(C)OC(=O)CN(Cc1ccc(Cl)cc1)Cc1ccc([N+](=O)[O-])s1 [GSK4112]			enhance REV-ERB's repressor function toward Bmal1 transcription
